Experiments:
MMP-2 = molecular target: T1, MMP-2 (Homo sapiens, UniProt P08253); assay: K(obs) of individual phage substrates (set of 1369); type: biochemical; settings: MMP2
T1 sequence (P08253 110-660): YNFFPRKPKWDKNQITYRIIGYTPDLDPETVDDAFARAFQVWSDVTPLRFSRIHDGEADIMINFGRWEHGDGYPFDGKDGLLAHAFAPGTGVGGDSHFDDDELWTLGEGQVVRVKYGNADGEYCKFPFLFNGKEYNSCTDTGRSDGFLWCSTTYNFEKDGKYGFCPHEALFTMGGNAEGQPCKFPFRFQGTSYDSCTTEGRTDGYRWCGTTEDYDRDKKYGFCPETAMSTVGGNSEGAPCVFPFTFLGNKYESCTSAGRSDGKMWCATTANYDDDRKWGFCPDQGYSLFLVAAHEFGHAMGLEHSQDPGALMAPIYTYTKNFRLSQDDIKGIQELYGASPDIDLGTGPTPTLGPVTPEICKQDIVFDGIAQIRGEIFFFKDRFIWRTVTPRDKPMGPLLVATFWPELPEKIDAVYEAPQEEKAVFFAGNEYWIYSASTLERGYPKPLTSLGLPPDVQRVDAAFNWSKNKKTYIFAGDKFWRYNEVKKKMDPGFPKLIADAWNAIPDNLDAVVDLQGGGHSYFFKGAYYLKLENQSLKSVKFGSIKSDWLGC

MMP-9 = MMP-9 (Homo sapiens, UniProt P14780); assay: as above; type: biochemical; settings: MMP9, individual phage substrates, set of 1369 peptides
Sequence of MMP-9 (P14780 94-707): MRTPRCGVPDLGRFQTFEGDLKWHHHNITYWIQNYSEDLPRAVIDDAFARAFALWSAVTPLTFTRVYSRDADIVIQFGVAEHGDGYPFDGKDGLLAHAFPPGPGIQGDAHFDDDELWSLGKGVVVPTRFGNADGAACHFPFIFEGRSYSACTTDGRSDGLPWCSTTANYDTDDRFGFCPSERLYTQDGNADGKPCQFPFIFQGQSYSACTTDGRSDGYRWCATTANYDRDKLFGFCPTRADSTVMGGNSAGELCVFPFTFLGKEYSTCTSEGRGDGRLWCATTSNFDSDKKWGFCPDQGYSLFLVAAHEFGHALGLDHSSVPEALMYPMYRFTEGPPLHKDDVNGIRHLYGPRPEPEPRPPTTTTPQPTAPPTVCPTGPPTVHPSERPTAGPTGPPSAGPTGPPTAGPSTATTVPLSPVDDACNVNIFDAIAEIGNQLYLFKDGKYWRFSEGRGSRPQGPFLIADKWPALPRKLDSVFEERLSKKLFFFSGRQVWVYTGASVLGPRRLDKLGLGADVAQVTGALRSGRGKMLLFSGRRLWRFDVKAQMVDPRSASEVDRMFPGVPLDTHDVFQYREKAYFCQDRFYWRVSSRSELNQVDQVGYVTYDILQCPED

[1] = individual phage substrates, set of 1369 peptides, cleavage position marked by '-' in the sequence
[2] = '-' marks the cleavage position (P1-P1')
[3] = individual phage substrate from the set of 1369 peptides, cleavage position marked by the dash in the sequence
[4] = dash in sequence marks cleavage position

Kobs (MMP-2; [1]) [M⁻¹ s⁻¹] | Kobs (MMP-9; [2]) [M⁻¹ s⁻¹] | Kobs (MMP-2; [3]) [M⁻¹ s⁻¹] | Kobs (MMP-9; [4]) [M⁻¹ s⁻¹] | Substance
0 | 762.325 |  |  | SGAYH-LQQTA
2157.02 | 5090.5 |  |  | SGAYS-LRVTA
0 | 0 |  |  | SGFSE-LTLTA
 |  | 12792.1 | 7815.03 | SGGRN-LTATA
484.315 | 1239.69 |  |  | SGGSG-LRMWI
 |  | 0 | 0 | SGHMH-MRSTA
0 | 0 |  |  | SGIES-MYVTA
0 | 0 |  |  | SGINM-LTLTA
0 | 0 |  |  | SGIQT-MKVTA
0 | 386.839 |  |  | SGIWK-LTATA
1981.53 | 2157.02 |  |  | SGIYG-LRNTA
0 | 0 |  |  | SGLAK-LTVTA
 |  | 0 | 0 | SGLAR-LSMTA
874.197 | 0 |  |  | SGLAS-LRLTA
12792.1 | 3850.82 |  |  | SGLGE-LRGTA
418.952 | 84.609 |  |  | SGLGM-LATTA
0 | 0 |  |  | SGLLN-MYITA
113.394 | 113.394 |  |  | SGLQN-LMLTA
0 | 0 |  |  | SGLWT-LMATA
762.325 | 201.585 |  |  | SGLYG-LTLTA
0 | 0 |  |  | SGMLS-LVITA
323.705 | 0 |  |  | SGMSS-LKFTA
0 | 0 |  |  | SGNLA-LKQTA
 |  | 8321.48 | 6688.74 | SGPAA-LQSTA
12792.1 | 7015.91 |  |  | SGPAG-MHSTA
12792.1 | 6688.74 |  |  | SGPAP-LVLTA

Kobs (MMP-2; [1]) [M⁻¹ s⁻¹] | Kobs (MMP-9; [2]) [M⁻¹ s⁻¹] | Kobs (MMP-2; [3]) [M⁻¹ s⁻¹] | Kobs (MMP-9; [4]) [M⁻¹ s⁻¹] | Substance
0 | 386.839 |  |  | SGPHL-LIRTA
0 | 323.705 |  |  | SGPHS-MKLTA
3741.87 | 10866.7 |  |  | SGPHW-LNATA
12792.1 | 12792.1 |  |  | SGPIP-IRKTA
0 | 1465.65 |  |  | SGPKQ-LTRTA
0 | 3741.87 |  |  | SGPLA-STVTA
12792.1 | 12792.1 |  |  | SGPLA-VRTTA
12792.1 | 12792.1 |  |  | SGPLG-IFYTA
8941.32 | 12792.1 |  |  | SGPLS-ILNTA
12792.1 | 12792.1 |  |  | SGPLS-LRSTA
1561.44 | 7815.03 |  |  | SGPLS-QSTTA
2476.66 | 10866.7 |  |  | SGPLT-LNSTA
 |  | 8941.32 | 8321.48 | SGPMA-LKSTA
5667.28 | 5889.62 |  |  | SGPMG-MRNTA
8321.48 | 10866.7 |  |  | SGPMH-LRSTA
 |  | 2996.69 | 8941.32 | SGPMS-LLDTA
7386.83 | 12792.1 |  |  | SGPMS-LRMTA
 |  | 1071.29 | 517.582 | SGPQA-VVKTA
 |  | 12792.1 | 8941.32 | SGPRS-LSQTA
12792.1 | 12792.1 |  |  | SGPSD-LHATA
5889.62 | 3964.21 |  |  | SGPSN-MLRTA
 |  | 1071.29 | 1513.13 | SGPSR-ILMTA
12792.1 | 12792.1 |  |  | SGPSS-LLGTA
 |  | 12792.1 | 12792.1 | SGPVS-LRMTA
2409.72 | 12792.1 |  |  | SGPWG-LLETA
12792.1 | 12792.1 |  |  | SGPYN-LRGTA

Kobs (MMP-2; [1]) [M⁻¹ s⁻¹] | Kobs (MMP-9; [2]) [M⁻¹ s⁻¹] | Kobs (MMP-2; [3]) [M⁻¹ s⁻¹] | Kobs (MMP-9; [4]) [M⁻¹ s⁻¹] | Substance
 |  | 0 | 0 | SGSAR-LTLTA
0 | 418.952 |  |  | SGSFN-LTMTA
0 | 0 |  |  | SGSWS-LILTA
 |  | 0 | 0 | SGSYP-LTRTA
12792.1 | 8941.32 |  |  | SGTWP-LSGTA
 |  | 0 | 27.918 | SGTWR-LMLTA
0 | 142.481 |  |  | SGVAP-LILTA
 |  | 12792.1 | 8941.32 | SGVAS-LMGTA
912.511 | 201.585 |  |  | SGVFN-LAFTA
 |  | 654.784 | 551.253 | SGVFS-LKLTA
 |  | 836.403 | 56.119 | SGVGA-LNKTA
 |  | 1373.05 | 0 | SGVGM-LYNTA
 |  | 0 | 0 | SGVHR-LSYTA
 |  | 0 | 113.394 | SGVKF-LFNTA
1154.21 | 2837.92 |  |  | SGVLS-LRYTA
 |  | 0 | 0 | SGVMK-LQKTA
 |  | 0 | 171.876 | SGVMR-LVVTA
 |  | 0 | 654.784 | SGVMY-LQVTA
27.918 | 0 |  |  | SGVNL-LLMTA
 |  | 113.394 | 0 | SGVNR-ISLTA
 |  | 323.705 | 0 | SGVNS-LFTTA
726.013 | 0 |  |  | SGVNS-LRRTA
12792.1 | 12792.1 |  |  | SGVRA-LISTA
 |  | 231.616 | 1513.13 | SGVRF-MRQTA
799.117 | 2157.02 |  |  | SGVRM-LRRTA
654.784 | 1925.41 |  |  | SGVWG-IRYTA

Kobs (MMP-2; [1]) [M⁻¹ s⁻¹] | Kobs (MMP-9; [2]) [M⁻¹ s⁻¹] | Kobs (MMP-2; [3]) [M⁻¹ s⁻¹] | Kobs (MMP-9; [4]) [M⁻¹ s⁻¹] | Substance
 |  | 0 | 0 | SGVWP-LVKTA
 |  | 113.394 | 0 | SGVYR-LELTA
0 | 142.481 |  |  | SGWAS-MRLTA
 |  | 1154.21 | 726.013 | SGWLN-LRSTA
231.616 | 0 |  |  | SGYAG-LRQTA
0 | 0 |  |  | SGYAH-MRVTA
1196.62 | 12792.1 |  |  | SGYLP-LLYTA
0 | 0 |  |  | SGYMH-IKVTA
0 | 0 |  |  | SGYRF-MTLTA
12792.1 | 9740.44 |  |  | SIPNA-LTASG
 |  | 5269.78 | 9740.44 | SKIRF-LTASG
3079.62 | 3079.62 |  |  | SKVLF-LTASG
 |  | 12792.1 | 5461.43 | SLPAH-ITASG
7386.83 | 5667.28 |  |  | SLYRA-LTASG
12792.1 | 10866.7 |  |  | SMPRM-LTASG
 |  | 10866.7 | 1239.69 | SPAHG-LTASG
 |  | 0 | 231.616 | SPALD-MTASG
 |  | 6688.74 | 7386.83 | SRPLN-LTASG
 |  | 7815.03 | 8321.48 | SRPRM-LTASG
 |  | 4613.14 | 1711.63 | SRVLP-LTASG
8321.48 | 4470.66 |  |  | SRVRN-LTASG
12792.1 | 12792.1 |  |  | SSPLY-LTASG
5269.78 | 0 |  |  | SSYAH-LTASG
12792.1 | 4470.66 |  |  | STVRN-LTASG
10866.7 | 4205.91 |  |  | SVARN-LTASG
619.843 | 690.17 |  |  | SWGLA-LTASG

From article PMC7932537, “Quantitative profiling of protease specificity” (PLoS Computational Biology, 2021)
